Source: patent publication US10106529B2, “Compounds that modulate intracellular calcium” (CalciMedica, Inc., priority 2011, dated 2018)

Tests used:
[1] = molecular target: T1, Orai1/STIM1 (Homo sapiens, UniProt Q96D31); experiment: Fluorescence-based assay of store-operated calcium entry in Orai1/STIM1 stable cells; format: cell-based; set-up: key to Orai1/STIM1 (IC50, μmol): A, IC50 < 0.6 μM; B, IC50 = 0.6-1.2 μM; C, IC50 > 1.2 μM; — no fit; details: HEK-293 cells stably expressing human STIM1 and Orai1, inhibition of Peak-Basal fluorescence signal after calcium addition; for IC50: read-out: Orai1/STIM1 (IC50, μmol)
T1 construct: c-myc (C); expressed in transfected cells; host or cells: HEK-293 cells stably expressing recombinant human STIM1 and Orai1
T1 sequence (Q96D31 whole entry): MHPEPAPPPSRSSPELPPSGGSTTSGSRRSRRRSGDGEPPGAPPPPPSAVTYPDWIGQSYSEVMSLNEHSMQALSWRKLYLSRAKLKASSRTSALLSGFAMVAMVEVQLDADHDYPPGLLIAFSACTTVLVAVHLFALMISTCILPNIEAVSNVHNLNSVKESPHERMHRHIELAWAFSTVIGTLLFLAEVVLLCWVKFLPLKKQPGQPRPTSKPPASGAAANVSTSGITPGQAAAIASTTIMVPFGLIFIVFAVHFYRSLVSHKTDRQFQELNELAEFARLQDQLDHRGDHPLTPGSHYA
Source text: (§1) Fluorescence-based assays are used for screening the compounds described herein, such as compounds of Formulas (I), (IA), (II), (IIA), (III), (IIIA), (IV), (IVA), (V), (VA), (VI), (VIA), (VII), (VIIA), (VIII), (VIIIA), (IX), (IXA), (X), (XI), (XIA), (XII), or (XIIA) which modulate intracellular calcium.
A. Fluorescence-Based Assay of Store-Operated Calcium Entry in Orai1/STIM1 Stable Cells.
Cells stably expressing recombinant human STIM1 and Orai1 are generated by transfecting a human Orai1 expression plasmid (pcDNA3.1-Orai1-cmyc) into HEK-293 cells stably overexpressing human STIM1 (Roos et al. 2005 JCB 169(3): 435-445). Colonies of cells stably expressing both STIM1 and Orai1 proteins are selected and then subcloned by limiting dilution. Cells were cultured at 37° C./6% CO2 in complete medium with 10% FBS and appropriate selection markers.
The day prior to performing the assay Orai1/STIM1 stable cells are plated in 50 μL of complete medium at 90-95% confluence in a 384 well plate. Cells are grown at 37° C./6% CO2 overnight. On the day of the assay, 1.5 μM fluo-4-AM (Invitrogen) in complete medium is added to the cells, which are then incubated for 1 hour at RT. Cells are washed once in Ca^2+-free HBSS (Hank's buffered saline solution) and 35 μl of Ca^2+-free HBSS is added to each well. Test compounds are added to wells in a 10 μL Ca^2+-free HBSS solution, prepared at 4.5× the desired final concentration, and incubated for 30 minutes at RT. The initial baseline fluorescence signal is then measured with a FLIPR^384 (Molecular Devices) plate reader. Calcium entry is initiated by adding 5 μl of 10×CaCl2 (10 mM) in HBSS, and changes in cellular fluorescence are measured with the FLIPR^384 plate reader. In each well, the magnitude of the fluorescence signal as a result of calcium entry into the cell is determined by calculating the difference between the peak fluorescence signal measured after calcium addition and the initial baseline fluorescence signal (designated Peak-Basal). IC50 values are typically calculated as the concentration that inhibited 50% of the Peak-Basal signal.

[2] = tested on: RBL-2H3 cells; experiment: Fluorescence-based assay of store-operated calcium entry in RBL-2H3 cells; format: cell-based, rat; set-up: key to RBL-2H3 (IC50, μmol): A, IC50 < 0.6 μM; B, IC50 = 0.6-1.2 μM; C, IC50 > 1.2 μM; — no fit; details: thapsigargin, inhibition of Upslope of fluorescence after calcium addition; for IC50: Rattus norvegicus, read-out: RBL-2H3 (IC50, μmol)
Protocol: as §1
B. Fluorescence-Based Assay of Store-Operated Calcium Entry in RBL-2H3 Cells.
RBL-2H3 cells are obtained from ATCC and maintained in complete medium with 10% FBS at 37° C./6% CO2.
The day prior to performing the assay, RBL-2H3 cells are plated in 50 μL of complete medium in a 384 well plate. Cells are grown at 37° C./6% CO2 overnight and grow to 50-60% confluence by the next day. On the assay day, 1.5 µM Fluo-4-AM dye (Invitrogen) in complete medium is added and incubated for 1 hour at RT. Cells are washed twice in Ca^2+-free HBSS buffer and 35 μL Ca^2+-free HBSS buffer is added to each well. 10 μL of a test compound prepared in a Ca^2+-free HBSS solution at 4.5× of the desired concentration is added to a well and incubated for 5 minutes at RT. 10 μL of thapsigargin prepared in a Ca^2+-free HBSS solution at 5.5× of the desired concentration (5.5 uM) is added to each well and incubated for an additional 25 minutes. The initial baseline fluorescence signal is measured with a FLIPR^384 (Molecular Devices) plate reader. 5 μL of 12× calcium in HBSS (12 mM) is added and changes in cellular fluorescence are measured with the FLIPR^384 plate reader. In each well, the change in the fluorescent signal as a function of time due to calcium entry into the cell is determined by calculating the difference between the fluorescent signal measured 7 seconds after calcium addition and the initial baseline fluorescence signal at time zero (t=0). This parameter is designated Upslope. The IC50 value is calculated as the concentration at which 50% of the Upslope is inhibited.

SMILES | Orai1/STIM1 (IC50, μmol) [1] | RBL-2H3 (IC50, μmol) [2] | IC50 [1] [nM] | IC50 [2] [nM]
Cn1nc(C(F)(F)F)cc1-c1cnc(OCc2c(F)cccc2Cl)nc1 [Compound 69] | — | — |  | 
Cc1cc2c(cc1-c1cnc(OCc3c(F)cccc3Cl)nc1)OC(F)(F)O2 [Compound 70] |  |  | > 1200 | < 600
Cn1nc(C(F)(F)F)cc1-c1ccc(NC(=O)c2ccccc2F)nc1 [Compound 72, (2-fluorophenyl)-N-{5-[1-methyl-3-(trifluoromethyl)pyrazol-5-yl](2-pyridyl)}carboxamide] |  |  | < 600 | < 600
Cn1nc(C(F)(F)F)cc1-c1ccc(NC(=O)c2c(F)cccc2F)nc1 [Compound 74, (2,6-difluorophenyl)-N-{5-[1-methyl-3-(trifluoromethyl)pyrazol-5-yl](2-pyridyl)}carboxamide] |  |  | 600 to 1200 | < 600
Cn1nc(C(F)(F)F)cc1-c1cnc(NCc2ccccc2F)nc1 [Compound 96, N-(2-fluorobenzyl)-5-(1-methyl-3-(trifluoromethyl)-1H-pyrazol-5-yl)pyrimidin-2-amine] |  |  | < 600 | < 600
Fc1cccc(F)c1CNc1ccc(-n2nc(C(F)(F)F)cc2C(F)(F)F)cn1 [Compound 100, 5-(3,5-bis(trifluoromethyl)-1H-pyrazol-1-yl)-N-(2,6-difluorobenzyl)pyridin-2-amine] |  |  | < 600 | < 600
Cc1nc(C(F)(F)F)cn1-c1ccc(NCc2c(F)cccc2F)nc1 [Compound 106, N-(2,6-difluorobenzyl)-5-(2-methyl-4-(trifluoromethyl)-1H-imidazol-1-yl)pyridin-2-amine] |  |  | < 600 | < 600
Cc1nc(C(F)(F)F)cn1-c1ccc(NCc2c(F)cncc2F)nc1 [Compound 110, N-((3,5-difluoropyridin-4-yl)methyl)-5-(2-methyl-4-(trifluoromethyl)-1H-imidazol-1-yl)pyridin-2-amine] | — |  |  | > 1200
Cc1c(F)cccc1CNc1ccc(-n2cc(C(F)(F)F)nc2C)cn1 [Compound 112, N-(3-fluoro-2-methylbenzyl)-5-(2-methyl-4-(trifluoromethyl)-1H-imidazol-1-yl)pyridin-2-amine] | — |  |  | 600 to 1200
Cc1cc(C(F)(F)F)nn1-c1ccc(NCc2c(F)cccc2F)nc1 [Compound 116, N-(2,6-difluorobenzyl)-5-(5-methyl-3-(trifluoromethyl)-1H-pyrazol-1-yl)pyridin-2-amine] |  |  | < 600 | < 600
COc1cc(F)c(CNc2ccc(-n3nc(C(F)(F)F)cc3C)cn2)c(F)c1 [Compound 120, N-(2,6-difluoro-4-methoxybenzyl)-5-(5-methyl-3-(trifluoromethyl)-1H-pyrazol-1-yl)pyridin-2-amine] |  |  | 600 to 1200 | < 600
Cc1c(F)cccc1CNc1ccc(-n2nc(C(F)(F)F)cc2C)cn1 [Compound 122, N-(3-fluoro-2-methylbenzyl)-5-(5-methyl-3-(trifluoromethyl)-1H-pyrazol-1-yl)pyridin-2-amine] | — |  |  | < 600
Cc1cc(C(F)(F)F)nn1-c1ccc(NCc2c(F)cncc2F)nc1 [Compound 124, N-((3,5-difluoropyridin-4-yl)methyl)-5-(5-methyl-3-(trifluoromethyl)-1H-pyrazol-1-yl)pyridin-2-amine] |  |  | 600 to 1200 | < 600
Fc1cccc(F)c1CNc1ncc(Oc2ccccc2C(F)(F)F)cn1 [Compound 126, N-(2,6-difluorobenzyl)-5-(2-(trifluoromethyl)phenoxy)pyrimidin-2-amine] |  |  | < 600 | < 600
COc1cc(F)c(CNc2ncc(-c3cc4c(cc3C)OC(F)(F)O4)cn2)c(F)c1 [Compound 127, N-(2,6-difluoro-4-methoxybenzyl)-5-(2,2-difluoro-6-methylbenzo[d][1,3]dioxol-5-yl)pyrimidin-2-amine] |  |  | < 600 | < 600
COc1cc(C)c(-c2cnc(NCc3c(F)cccc3F)nc2)cn1 [Compound 128, N-(2,6-difluorobenzyl)-5-(6-methoxy-4-methylpyridin-3-yl)pyrimidin-2-amine] |  |  | < 600 | < 600
Cc1cc(Cl)ncc1-c1cnc(NCc2c(F)cc(Cl)cc2F)nc1 [Compound 129, N-(4-chloro-2,6-difluorobenzyl)-5-(6-chloro-4-methylpyridin-3-yl)pyrimidin-2-amine] |  |  | < 600 | < 600

Second part, the molecule after the results:

Orai1/STIM1 (IC50, μmol) [1] | RBL-2H3 (IC50, μmol) [2] | IC50 [1] [nM] | IC50 [2] [nM] | SMILES
 |  | > 1200 | 600 to 1200 | Cn1nc(C(F)(F)F)cc1-c1cnc(NCc2c(F)cccc2F)cc1F [Compound 76, N-(2,6-difluorobenzyl)-4-fluoro-5-(1-methyl-3-(trifluoromethyl)-1H-pyrazol-5-yl)pyridin-2-amine]
 |  | < 600 | < 600 | Cn1nc(C(F)(F)F)cc1-c1ccc(NCc2c(F)ccc(F)c2F)nc1 [Compound 78, 5-(1-methyl-3-(trifluoromethyl)-1H-pyrazol-5-yl)-N-(2,3,6-trifluorobenzyl)pyridin-2-amine]
 |  | < 600 | < 600 | Cn1nc(C(F)(F)F)cc1-c1ccc(NCc2ccc(F)cc2F)nc1 [Compound 80, 5-(1-methyl-3-(trifluoromethyl)-1H-pyrazol-5-yl)-N-(2,4-difluorobenzyl)pyridin-2-amine]
 |  | < 600 | < 600 | Cn1nc(C(F)(F)F)cc1-c1ccc(NCc2c(F)cc(F)cc2F)nc1 [Compound 82, 5-(1-methyl-3-(trifluoromethyl)-1H-pyrazol-5-yl)-N-(2,4,6-trifluorobenzyl)pyridin-2-amine]
 |  | < 600 | < 600 | Cn1nc(C(F)(F)F)cc1-c1ccc(NCc2c(F)cncc2F)nc1 [Compound 84, N-((3,5-difluoropyridin-4-yl)methyl)-5-(1-methyl-3-(trifluoromethyl)-1H-pyrazol-5-yl)pyridin-2-amine]
 |  | < 600 | < 600 | Cc1cccc(F)c1CNc1ccc(-c2cc(C(F)(F)F)nn2C)cn1 [Compound 86, N-(2-fluoro-6-methylbenzyl)-5-(1-methyl-3-(trifluoromethyl)-1H-pyrazol-5-yl)pyridin-2-amine]
 |  | < 600 | < 600 | Fc1cc(F)c(CNc2ccc(-n3nc(C(F)(F)F)cc3C(F)(F)F)cn2)c(F)c1 [Compound 102, 5-(3,5-bis(trifluoromethyl)-1H-pyrazol-1-yl)-N-(2,4,6-trifluorobenzyl)pyridin-2-amine]
 |  | 600 to 1200 | < 600 | Cc1nc(C(F)(F)F)cn1-c1ccc(NCc2c(F)cc(F)cc2F)nc1 [Compound 108, 5-(2-methyl-4-(trifluoromethyl)-1H-imidazol-1-yl)-N-(2,4,6-trifluorobenzyl)pyridin-2-amine]
 |  | < 600 | < 600 | Cc1cc(C(F)(F)F)nn1-c1ccc(NCc2c(F)cc(F)cc2F)nc1 [Compound 118, 5-(5-methyl-3-(trifluoromethyl)-1H-pyrazol-1-yl)-N-(2,4,6-trifluorobenzyl)pyridin-2-amine]
